Assay results from US20080058373A1, “Compositions and Methods for Treating or Preventing Glaucoma or Progression Thereof” (priority 2006, published 2008).
“And” between values parts separate entries of the source, which are not always exact repeats. Equal entries are not always repeated. “Also recorded” adds a separate entry of the source.

Experiments:
Format in all cases: in vivo
Myeloperoxidase (MPO) = Myeloperoxidase (MPO) activity in iris-ciliary body, rabbit paracentesis model; conditions: for MPO activity in iris-ciliary body, Mean / MPO activity in iris-ciliary body: samples collected after the second paracentesis; for MPO activity in iris-ciliary body, Mean: group mean; for Δ/min (mean of the slope of the line recorded every 15 sec for 5 min): 100 μl supernatant aliquot diluted to 3 ml; for Δ/min (mean of the slope of the line recorded every 15 sec for 5 min) / MPO activity in iris-ciliary body: individual eyes
Protocol: 3.9 g of NaH2PO4 2H2O were dissolved in a volumetric flask to 500 ml with water. The pH was adjusted to pH=6 with 3N NaOH.
0.5 g of hexa-decyl-trimethyl-ammonium bromide was dissolved in 100 ml phosphate buffer.
The solution was prepared freshly. Ten microliters of H2O2 (30 wt. %) were diluted to 1 ml with water (solution A). 7.5 mg o-dianisidine 2HCl was dissolved in 45 ml of phosphate buffer and 75 μl of solution A were added.
Each rabbit was placed in a restraint device and tagged with the alphanumeric code. The formulations were instilled (50 μl) into the conjunctival sac of both eyes 180, 120, 90 and 30 min before the first paracentesis; then 15, 30, 90 min after the first paracentesis. To perform the first paracentesis the animals were anaesthetized by intravenous injection of 5 mg/kg Zoletil® (Virbac; 2.5 mg/kg tiletamine HCl and 2.5 mg/kg zolazepam HCl) and one drop of local anesthetic (Novesina®, Novartis) was administered to the eye. Anterior chamber paracentesis was performed with a 26 G needle attached to a tuberculin syringe; the needle was introduced into the anterior chamber through the cornea, taking care not to damage the tissues. Two hours after the first paracentesis, the animals were sacrificed with 0.4 ml Tanax® (Intervet International B.V.) and the second paracentesis was performed. About 100 μl of aqueous humor were removed at the second paracentesis. Aqueous humor was immediately split in four aliquots and stored at −80° C. until analysis. Then both eyes were enucleated and the iris-ciliary body was carefully excised, placed in polypropylene tubes, and stored at −80° C. until analysis.
The activity of MPO was measured as previously described by Williams et al.[5] The iris-ciliary bodies were carefully dried, weighed and immersed in 1 ml of hexa-decyl-trimethyl-ammonium bromide solution. Then, the samples were sonicated for 10 sec on ice by a ultrasound homogenizer (HD 2070, Bandelin electronic), freeze-thawed three times, sonicated for 10 sec and centrifuged at 14,000 g for 10 min to remove cellular debris. An aliquot of the supernatant (40-200 μl) was diluted to 3 ml with the o-dianisidine 2HCl/H2O2 solution. The change in absorbance at 460 nm was continuously monitored for 5 min by a spectrophotometer (UV/Vis Spectrometer Lambda EZ 201; Perkin Elmer). The slope of the line (Δ/min) was determined for each sample and used to calculate the number of units of MPO in the tissue as follows:
Values were expressed as units of MPO/g of tissue.

[1] = test system: New Zealand White rabbits; assay: Ophthalmic observations (slit lamp, McDonald Shadduck system) in the rabbit IOP study; design: key to Cornea Score: 1: Some loss of transparency. Only the epithelium and/or the anterior half of the stoma are involved. The underlying structures are clearly visible although some cloudiness may be readily apparent; key to Conjunctival congestion Score: A flushed, reddish color predominantly confined to the palpebral conjunctiva with some perilimbal injection but primarily confined to the lower and upper parts of the eye from the 4:00 to 7:00 and 11:00 to 1:00 positions; key to Ophthalmic Observation (Slit-Lamp): AN: Appeared normal
Protocol: Prior to placement on study, each animal underwent a pre-treatment ophthalmic examination (slit lamp and indirect ophthalmoscopy). Observations were scored according to the McDonald Shadduck system and recorded using a standardized data collection sheet.
Ophthalmic examinations (slit lamp) were performed prior to the first dosing on Days 5, 12, 22, 26, and 33. Ocular findings were scored according to the McDonald Shadduck system and recorded using a standardized data collection sheet.

[2] = test system: rabbit eye (anterior chamber paracentesis); assay: Rabbit paracentesis model of anterior-segment inflammation (overall conclusion); conditions: 0.1%, 0.5% and 1% topical formulations
Description: Inflammatory processes are multidimensional in origin, and are characterized by complex cellular and molecular events involving numerous components all of which have not been identified. Prostaglandins are among these mediators and play an important role in certain forms of ocular inflammation. Paracentesis of the anterior chamber in the rabbit eye induces inflammatory reaction due to the disruption of the blood-aqueous barrier (“BAB”), which is mediated, at least in part, by prostaglandin E2 [References 1-3 below]. Intraocular or topical administration of PGE2 disrupts the BAB. [Reference 4, below] The treatment schedule adopted in this study was similar to the clinical NSAIDs (Ocufen) treatment schedule used by surgeons for patients before cataract surgery.
Each rabbit was placed in a restraint device and tagged with the alphanumeric code. The formulations were instilled (50 μl) into the conjunctival sac of both eyes 180, 120, 90 and 30 min before the first paracentesis; then 15, 30, 90 min after the first paracentesis. […]
Pupillary diameter, PGE2, protein, PMN, and MPO were expressed as mean±SEM. […] Clinical score was expressed as % of eyes and the statistical analysis was performed using Kruskal-Wallis followed by a Dunn post hoc test. […]

[3] = 10 mg/g, treated right eye, Day 5

Cc1ccc2c(NCC(O)(CC(C)(C)c3cc(F)cc4c3OCC4)C(F)(F)F)cccc2n1 (stereo not drawn)
MPO activity in iris-ciliary body, Mean (Myeloperoxidase (MPO); 0.1% topical): 0.971 MPO Unit/g
Δ/min (mean of the slope of the line recorded every 15 sec for 5 min) (Myeloperoxidase (MPO); 0.1% treatment, listed as BOL): 0.051 and 0.042 (2×) and 0.045 and 0.050 and 0.031 (2×) and 0.036
MPO activity in iris-ciliary body (Myeloperoxidase (MPO); 0.1% treatment, listed as BOL): 1.04 Unit/g and 1.00 Unit/g and 1.14 Unit/g and 1.06 Unit/g and 1.22 Unit/g and 0.61 Unit/g and 1.05 Unit/g and 0.65 Unit/g
MPO activity in iris-ciliary body, Mean (Myeloperoxidase (MPO); 0.5% topical): 0.775 MPO Unit/g
Δ/min (mean of the slope of the line recorded every 15 sec for 5 min) (Myeloperoxidase (MPO); 0.5% treatment, listed as BOL): 0.044 and 0.040 and 0.031 and 0.049 and 0.033 and 0.034 and 0.022 and 0.026
MPO activity in iris-ciliary body (Myeloperoxidase (MPO); 0.5% treatment, listed as BOL): 0.85 Unit/g and 0.93 Unit/g and 0.79 Unit/g and 1.03 Unit/g and 0.75 Unit/g and 0.74 Unit/g and 0.54 Unit/g and 0.58 Unit/g
MPO activity in iris-ciliary body, Mean (Myeloperoxidase (MPO); 1% topical): 0.542 MPO Unit/g
Δ/min (mean of the slope of the line recorded every 15 sec for 5 min) (Myeloperoxidase (MPO); 1% treatment, listed as BOL): 0.024 and 0.033 and 0.017 and 0.018 (2×) and 0.016 and 0.052 and 0.013
MPO activity in iris-ciliary body (Myeloperoxidase (MPO); 1% treatment, listed as BOL): 0.66 Unit/g and 0.68 Unit/g and 0.49 Unit/g and 0.40 Unit/g and 0.34 Unit/g and 1.02 Unit/g and 0.31 Unit/g and 0.43 Unit/g
Slit-lamp ocular findings (other findings) ([1]; 1 mg/g suspension, dosed right eye (Group D, No. 3043)): a subconjunctival hemorrhage
Ophthalmic Observation (Slit-Lamp) ([1]; 1 mg/g, treated right eye, Day 5, 12, 22, 26): AN
Ophthalmic Observation (Slit-Lamp) ([1]; 1 mg/g, treated right eye, Day 5, 12, 22, 26, 33): AN
Ophthalmic Observation (Slit-Lamp) ([1]; 1 mg/g, treated right eye, Day 5, 12, 26, 33): AN
Conjunctival congestion Score ([1]; 1 mg/g, treated right eye, Day 22): 1
Conjunctival congestion Score ([1]; 5 mg/g, treated right eye, Day 5): 1
Ophthalmic Observation (Slit-Lamp) ([1]; 5 mg/g, treated right eye, Day 5, 12): AN
Ophthalmic Observation (Slit-Lamp) ([1]; 5 mg/g, treated right eye, Day 5, 12, 22): AN
Ophthalmic Observation (Slit-Lamp) ([1]; 5 mg/g, treated right eye, Day 5, 12, 22, 26, 33): AN
Ophthalmic Observation (Slit-Lamp) ([1]; 5 mg/g, treated right eye, Day 5, 12, 26, 33): AN
Ophthalmic Observation (Slit-Lamp) ([1]; 5 mg/g, treated right eye, Day 5, 12, 33): AN
Ophthalmic Observation (Slit-Lamp) ([1]; 5 mg/g, treated right eye, Day 12, 22, 26, 33): AN
Conjunctival congestion Score ([1]; 5 mg/g, treated right eye, Day 22): 1
Conjunctival congestion Score ([1]; 5 mg/g, treated right eye, Day 22, 26): 1
Conjunctival congestion Score ([1]; 5 mg/g, treated right eye, Day 26): 1
Slit-lamp ocular findings (other findings) ([1]; 10 mg/g suspension, dosed right eye (Group B, No. 3083)): a pinpoint corneal scar
Ophthalmic Observation (Slit-Lamp) [1, 3]: AN
Surface area of cornea involvement Score [1, 3]: 1 (1-25% area of stromal cloudiness.)
Conjunctival congestion Score ([1]; 10 mg/g, treated right eye, Day 5, 12): 1
Ophthalmic Observation (Slit-Lamp) ([1]; 10 mg/g, treated right eye, Day 5, 12, 22, 26, 33): AN
Ophthalmic Observation (Slit-Lamp) ([1]; 10 mg/g, treated right eye, Day 5, 12, 22, 33): AN
Ophthalmic Observation (Slit-Lamp) ([1]; 10 mg/g, treated right eye, Day 5, 22, 26, 33): AN
Cornea Score ([1]; 10 mg/g, treated right eye, Day 5, pinpoint corneal scar): 1^(2)
Conjunctival congestion Score ([1]; 10 mg/g, treated right eye, Day 12): 1
Ophthalmic Observation (Slit-Lamp) ([1]; 10 mg/g, treated right eye, Day 12, 22, 26, 33): AN
Ophthalmic Observation (Slit-Lamp) ([1]; 10 mg/g, treated right eye, Day 22, 26, 33): AN
Conjunctival congestion Score ([1]; 10 mg/g, treated right eye, Day 26): 1
Anti-inflammatory activity in the rabbit paracentesis model (preliminary conclusion) [2]: active in this model; also recorded: as effective an anti-inflammatory drug as some of the commonly accepted prior-art steroids or NSAID

C[C@@H]1C[C@H]2[C@@H]3CCC4=CC(=O)C=C[C@]4(C)[C@@]3(F)[C@@H](O)C[C@]2(C)[C@@]1(O)C(=O)CO [dexamethasone, reference compound]
MPO activity in iris-ciliary body, Mean (Myeloperoxidase (MPO); 0.1% topical): 0.618 MPO Unit/g
Δ/min (mean of the slope of the line recorded every 15 sec for 5 min) (Myeloperoxidase (MPO); 0.1% treatment, listed as Dex): 0.029 and 0.031 and 0.064 and 0.023 (2×) and 0.019 and 0.024 and 0.021
MPO activity in iris-ciliary body (Myeloperoxidase (MPO); 0.1% treatment, listed as Dex): 0.71 Unit/g and 0.60 Unit/g and 1.32 Unit/g and 0.48 Unit/g (2×) and 0.39 Unit/g and 0.45 Unit/g and 0.51 Unit/g
Conjunctival congestion Score ([1]; 0.1% 4 × daily, treated right eye, Day 5): 1
Ophthalmic Observation (Slit-Lamp) ([1]; 0.1% 4 × daily, treated right eye, Day 5, 12): AN
Ophthalmic Observation (Slit-Lamp) ([1]; 0.1% 4 × daily, treated right eye, Day 5, 12, 22): AN
Ophthalmic Observation (Slit-Lamp) ([1]; 0.1% 4 × daily, treated right eye, Day 5, 12, 22, 26): AN
Ophthalmic Observation (Slit-Lamp) ([1]; 0.1% 4 × daily, treated right eye, Day 5, 12, 22, 26, 33): AN
Ophthalmic Observation (Slit-Lamp) ([1]; 0.1% 4 × daily, treated right eye, Day 5, 12, 26, 33): AN
Ophthalmic Observation (Slit-Lamp) ([1]; 0.1% 4 × daily, treated right eye, Day 12, 22, 26): AN
Conjunctival congestion Score ([1]; 0.1% 4 × daily, treated right eye, Day 22): 1
